pEC50, pKi: −log10 of the molar value. Like-named read-outs stand apart in the source and are kept apart here.
Legend:
[1] = molecular target: T1, human CB2 receptors (Homo sapiens, UniProt P34972); assay: human CB2 radioligand binding assay ([3H]CP-55,940 competition)
T1 construct: expressed in transfected cells; host or cells: HEK293

[2] = molecular target: T2, rat CB2 (Rattus norvegicus, UniProt Q9QZN9); assay: rat CB2 cyclase functional assay (HitHunter cAMP, HEK cells); format: cell-based; design: expressed in transfected cells; host or cells: HEK; conditions: forskolin 18 μM
T2 sequence (Q9QZN9 1-360): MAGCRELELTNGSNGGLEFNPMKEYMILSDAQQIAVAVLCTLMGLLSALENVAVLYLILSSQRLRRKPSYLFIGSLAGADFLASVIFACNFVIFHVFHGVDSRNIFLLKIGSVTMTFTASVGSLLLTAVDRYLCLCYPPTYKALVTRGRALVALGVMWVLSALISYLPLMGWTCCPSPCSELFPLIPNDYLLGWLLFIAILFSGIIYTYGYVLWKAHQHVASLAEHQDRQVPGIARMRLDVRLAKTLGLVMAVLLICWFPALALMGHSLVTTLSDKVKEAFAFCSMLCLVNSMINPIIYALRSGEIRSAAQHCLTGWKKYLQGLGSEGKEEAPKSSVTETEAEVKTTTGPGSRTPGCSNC

[3] = molecular target: T2, rat CB2; assay: rat CB2 radioligand binding assay ([3H]CP-55,940 competition); design: expressed in transfected cells; host or cells: HEK293
[4] = HEK293 membranes, 0.5 nM [3H]CP-55,940, read-out: human CB2 (Ki)
[5] = HEK293 membranes, 0.5 nM [3H]CP-55,940, read-out: rat CB2 (Ki)

T1 sequence (P34972 whole entry): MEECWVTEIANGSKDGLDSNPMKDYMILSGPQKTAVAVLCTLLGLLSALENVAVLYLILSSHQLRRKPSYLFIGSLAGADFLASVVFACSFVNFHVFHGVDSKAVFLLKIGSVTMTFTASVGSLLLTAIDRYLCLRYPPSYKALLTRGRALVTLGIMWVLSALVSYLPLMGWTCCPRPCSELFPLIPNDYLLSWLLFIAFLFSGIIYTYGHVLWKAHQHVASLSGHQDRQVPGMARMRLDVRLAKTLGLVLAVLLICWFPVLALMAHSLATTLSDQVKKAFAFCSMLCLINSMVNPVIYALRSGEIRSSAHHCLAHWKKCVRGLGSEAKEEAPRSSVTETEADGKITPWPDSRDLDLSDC

For `CCCCc1cn(C(C)(C)C)s/c1=N\C(=O)[C@@H]1CC[C@](C)(C(=O)O)C1(C)C` [Example 205, (1S,3R)-3-({[(5Z)-4-butyl-2-tert-butylisothiazol-5(2H)-ylidene]amino}carbonyl)-1,2,2-trimethylcyclopentanecarboxylic acid], the pKi [1] was 7.68 and the pEC50 [2] was 7.93.

With `CCCCc1cn(C(C)(C)C)s/c1=N\C(=O)c1cc(C(F)(F)F)ccc1OC[C@@H]1CCC(=O)N1` [Example 194, N-[(5Z)-4-butyl-2-tert-butylisothiazol-5(2H)-ylidene]-2-{[(2S)-5-oxopyrrolidin-2-yl]methoxy}-5-(trifluoromethyl)benz amide] the pKi [1, 4] was 6.77 and the pKi [3] was 7.39.

With `CCCCc1cn(C(C)(C)C)s/c1=N\C(=O)[C@]1(C)CC[C@H](C(=O)NC[C@@H]2CCCO2)C1(C)C` [Example 226, (1R,3S)—N^1-[(5Z)-4-butyl-2-tert-butylisothiazol-5(2H)-ylidene]-1,2,2-trimethyl-N^3-[(2S)-tetrahydrofuran-2-ylmethyl]cyclopentane-1,3-dicarboxamide] the pKi [1] was 6.60 and the pKi [3] was 6.88.

`C#CCNC(=O)[C@H]1CC[C@@](C)(C(=O)/N=c2\sn(C(C)(C)C)cc2CCCC)C1(C)C` [Example 237, (1R,3S)—N^1-[(5Z)-4-butyl-2-tert-butylisothiazol-5(2H)-ylidene]-1,2,2-trimethyl-N^3-prop-2-ynylcyclopentane-1,3-dicarboxamide] was tested, and the pKi [1] was 7.64 and the pKi [3] was 7.74.

`CCCCc1cn(C(C)(C)C)s/c1=N\C(=O)[C@H]1CC[C@@](C)(C(=O)O)C1(C)C` [Example 181, (1R,3S)-3-({[(5Z)-4-butyl-2-tert-butylisothiazol-5(2H)-ylidene]amino}carbonyl)-1,2,2-trimethylcyclopentanecarboxylic acid] showed a pKi [1] of 6.80 and a pKi [3] of 7.82.

In the case of `CCCCc1cn(C(C)(C)C)s/c1=N\C(=O)[C@H]1CC[C@@](C)(C(=O)N(C)C)C1(C)C` [Example 183, (1R,3S)—N^3-[(5Z)-4-butyl-2-tert-butylisothiazol-5(2H)-ylidene]-N^1,N^1,1,2,2-pentamethylcyclopentane-1,3-dicarboxamide], the pKi [1, 4] was 6.68 and the pKi [3] was 7.40.

`CCCCc1cn(C(C)(C)C)s/c1=N\C(=O)[C@@]1(C)CC[C@@H](NC(=O)NC)C1(C)C` [Example 254, (1S,3R)—N-[(5Z)-4-butyl-2-tert-butylisothiazol-5(2H)-ylidene]-1,2,2-trimethyl-3-{[(methylamino)carbonyl]amino}cyclopentanecarboxamide] gave a pKi [1] of 7.08 and a pKi [3, 5] of 6.97.

Work on `CCCCc1cn(C(C)(C)C)s/c1=N\C(=O)c1cc(Cl)ccc1OCC(F)(F)F` [Example 47, N-[(5Z)-4-butyl-2-tert-butylisothiazol-5(2H)-ylidene]-5-chloro-2-(2,2,2-trifluoroethoxy)benzamide] yielded a pKi [1] of 8.14 and a pKi [3] of 8.74.

With `CCCCc1cn(C(C)(C)C)s/c1=N\C(=O)[C@]1(C)CC[C@H](C(=O)N(C)OC)C1(C)C` [Example 241, (1R,3S)—N^1-[(5Z)-4-butyl-2-tert-butylisothiazol-5(2H)-ylidene]-N^3-methoxy-N^3,1,2,2-tetramethylcyclopentane-1,3-dicarboxamide] the pKi [1] was 7.70 and the pKi [3] was 7.62.

`CCCCc1cn(C(C)(C)C)s/c1=N\C(=O)c1cc(C(F)(F)F)ccc1ONC(C)(C)C` [Example 267, 2-[(tert-butylamino)oxy]-N-[(5Z)-4-butyl-2-tert-butylisothiazol-5(2H)-ylidene]-5-(trifluoromethyl)benzamide] gave a pKi [1] of 7.72 and a pKi [3] of 9.00.

For `CCCCc1cn(C(C)(C)C)s/c1=N\C(=O)c1cc(C(F)(F)F)ccc1OCc1cnccn1` [Example 198, N-[(5Z)-4-butyl-2-tert-butylisothiazol-5(2H)-ylidene]-2-(pyrazin-2-ylmethoxy)-5-(trifluoromethyl)benzamide], the pKi [1, 4] was 6.60 and the pKi [3, 5] was 6.95.

For `C#CCNC(=O)[C@@H]1CC[C@](C)(C(=O)/N=c2\sn(C(C)(C)C)cc2CCCC)C1(C)C` [Example 239, (1S,3R)—N^1-[(5Z)-4-butyl-2-tert-butylisothiazol-5(2H)-ylidene]-1,2,2-trimethyl-N^3-prop-2-ynylcyclopentane-1,3-dicarboxamide], the pKi [1] was 7.14 and the pKi [3] was 7.15.

`CCCCc1cn(C(C)(C)C)s/c1=N\C(=O)[C@]1(C)CC[C@H](NC(=O)N2CC(O)C2)C1(C)C` [Example 260, N-[(1S,3R)-3-({[(5Z)-4-butyl-2-tert-butylisothiazol-5(2H)-ylidene]amino}carbonyl)-2,2,3-trimethylcyclopentyl]-3-hydroxyazetidine-1-carboxamide] was tested, and the pKi [1, 4] was 6.72 and the pKi [3, 5] was 6.44.

In the case of `CCCCc1cn(C(C)(C)C)s/c1=N\C(=O)c1cc(I)ccc1OC` [Example 61, N-[(5Z)-4-butyl-2-tert-butylisothiazol-5(2H)-ylidene]-5-iodo-2-methoxybenzamide], the pKi [1] was 8.12 and the pKi [3] was 9.29.

`CCCCc1cn(C(C)(C)C)s/c1=N\C(=O)[C@]1(C)CC[C@H](NC(=O)OC)C1(C)C` [Example 215, Methyl (1S,3R)-3-({[(5Z)-4-butyl-2-tert-butylisothiazol-5(2H)-ylidene]amino}carbonyl)-2,2,3-trimethylcyclopentylcarbamate] gave a pKi [1] of 7.16 and a pKi [3] of 7.04.

In the case of `CCCCc1cn(C(C)(C)C)s/c1=N\C(=O)[C@]1(C)CC[C@H](NC(=O)N(C)c2ccccc2)C1(C)C` [Example 264, (1R,3S)—N-[(5Z)-4-butyl-2-tert-butylisothiazol-5(2H)-ylidene]-1,2,2-trimethyl-3-({[methyl(phenyl)amino]carbonyl}amino)cyclopentanecarboxamide], the pKi [1] was 7.96 and the pKi [3] was 7.48.

`COc1ccc(Cl)cc1C(=O)/N=c1\sn(C(C)(C)C)cc1C(O)CC1CCC1` (stereo not drawn) [Example 33, N-[(5Z)-2-tert-butyl-4-(2-cyclobutyl-1-hydroxyethyl)isothiazol-5(2H)-ylidene]-5-chloro-2-methoxybenzamide] gave a pKi [1] of 8.43 and a pKi [3] of 9.00.

`CCCCc1cn(C(C)(C)C)s/c1=N\C(=O)[C@]1(C)CC[C@H](NC(=O)N2CC(F)(F)C2)C1(C)C` [Example 261, N-[(1S,3R)-3-({[(5Z)-4-butyl-2-tert-butylisothiazol-5(2H)-ylidene]amino}carbonyl)-2,2,3-trimethylcyclopentyl]-3,3-difluoroazetidine-1-carboxamide] was tested, and the pKi [1] was 7.27 and the pKi [3] was 7.36.

`CCCCc1cn(C(C)(C)C)s/c1=N\C(=O)[C@@]1(C)CC[C@@H](NC(N)=O)C1(C)C` [Example 253, (1S,3R)-3-[(aminocarbonyl)amino]-N-[(5Z)-4-butyl-2-tert-butylisothiazol-5(2H)-ylidene]-1,2,2-trimethylcyclopentanecarboxamide] was tested, and the pKi [1] was 6.80 and the pKi [3] was 7.35.

For `CCCCc1cn(C(C)(C)C)s/c1=N\C(=O)[C@@H]1CC[C@](C)(C2=NCCO2)C1(C)C` [Example 224, (1R,3S)—N-[(5Z)-4-butyl-2-tert-butylisothiazol-5(2H)-ylidene]-3-(4,5-dihydro-1,3-oxazol-2-yl)-2,2,3-trimethylcyclopentanecarboxamide], the pKi [1] was 7.42 and the pKi [3] was 7.70.

Molecule `CCCCc1cn(C(C)(C)C)s/c1=N\C(=O)c1cc(C(F)(F)F)ccc1OCC(C)(C)O` [Example 262, N-[(5Z)-4-butyl-2-tert-butylisothiazol-5(2H)-ylidene]-2-(2-hydroxy-2-methylpropoxy)-5-(trifluoromethyl)benzamide] has a pKi [1] of 8.22 and a pKi [3] of 8.36.

Work on `CCCCc1cn(C(C)(C)C)s/c1=N\C(=O)C1(c2ccccc2)CCCC1` [Example 98, N-[(5Z)-4-butyl-2-tert-butylisothiazol-5(2H)-ylidene]-1-phenylcyclopentanecarboxamide] yielded a pKi [1] of 8.00 and a pKi [3] of 8.32.

In the case of `CCC1CC1c1cn(C(C)(C)C)s/c1=N\C(=O)c1cc(Cl)ccc1OC` (stereo not drawn) [Example 27, N-[(5Z)-2-tert-butyl-4-(2-ethylcyclopropyl)isothiazol-5(2H)-ylidene]-5-chloro-2-methoxybenzamide], the pKi [1, 4] was 6.62 and the pKi [3] was 7.64.

For `CCCCc1cn(C(C)(C)C)s/c1=N\C(=O)[C@]1(C)CC[C@H](NC(=O)N2CCC2)C1(C)C` [Example 263, N-[(1S,3R)-3-({[(5Z)-4-butyl-2-tert-butylisothiazol-5(2H)-ylidene]amino}carbonyl)-2,2,3-trimethylcyclopentyl]azetidine-1-carboxamide], the pKi [1] was 7.48 and the pKi [3] was 7.11.

`CCCCc1cn(C(C)(C)C)s/c1=N\C(=O)[C@@H]1CC[C@](C)(C(=O)NCCC)C1(C)C` [Example 211, (1S,3R)—N^3-[(5Z)-4-butyl-2-tert-butylisothiazol-5(2H)-ylidene]-1,2,2-trimethyl-N^1-propylcyclopentane-1,3-dicarboxamide] gave a pKi [1, 4] of 6.57 and a pKi [3, 5] of 6.95.

For `CCCCc1cn(C(C)(C)C)s/c1=N\C(=O)[C@]1(C)CC[C@H](C(=O)N2CCC2)C1(C)C` [Example 178, (1R,3S)-3-(azetidin-1-ylcarbonyl)-N-[(5Z)-4-butyl-2-tert-butylisothiazol-5(2H)-ylidene]-1,2,2-trimethylcyclopentanecarboxamide], the pKi [1] was 6.77 and the pKi [3] was 7.34.

`CCCCc1cn(C(C)(C)C)s/c1=N\C(=O)[C@]1(C)CC[C@H](C(=O)N(C)C)C1(C)C` [Example 179, (1R,3S)—N^1-[(5Z)-4-butyl-2-tert-butylisothiazol-5(2H)-ylidene]-N^3,N^3,1,2,2-pentamethylcyclopentane-1,3-dicarboxamide] gave a pKi [1] of 6.80 and a pKi [3] of 7.17.
